Experimental data reported in patent publication US11413239B2, “Pharmaceutical composition of tapentadol for nasal administration” (Torrent Pharmaceuticals Ltd., priority 2011, dated 2022).

Key:
[1] = Crystal formation in concentrated tapentadol solution on storage; type: physicochemical; conditions: increased concentration of tapentadol in solution, stored for more than 3 days
Text: This makes the formulation non-homogeneous and therefore non-suitable for nasal administration. This crystal growth may further leads to altered therapeutic effect of the drug. Present invention overcomes this problem by providing a composition, wherein no such crystal growth is observed in the composition comprising high concentration of drug, when stored for longer duration.

[2] = cited from earlier work

Compound: CC[C@@H](c1cccc(O)c1)[C@@H](C)CN(C)C.Cl [Tapentadol, 3-[(1R,2R)-3-(dimethylamino)-1-ethyl-2-methylpropyl]phenol]
- crystal formation on storage [1]: formation of crystals
- clearance ([2]; Eur. J. Drug Met and Pharmacokinetics 2007, 32, 163-169): 1468.+−.122 mL/min
- time of maximum serum concentration ([2]; after oral dosing): around 1.25 hours
- parent compound metabolized ([2]; given orally): About 97%
- time to absorb after administration ([2]; oral formulations): at least 45 minutes
